Measured values reported in patent US20110065138A1, “Quantitative Method For Detecting Yessotoxins In Fishery Products On Based On The Activation That The Toxin Produces In Cellular Phosphodiesterases And Therapeutic Use Of This Activation” (UNIVERSIDADE DE SANTIAGO DE COMPOSTELA, priority 2003, published 2011).

What was measured:
[1] = system: HEP-G2 cells; assay: HEP-G2 cell growth inhibition by crystal violet staining; assay type: cell-based; conditions: Homo sapiens, HepG2, 10 μM of YTX, 48 hours incubation, absorbance 595 nm
Excerpt: Neoplasic cell growth inhibition is an indicator of antitumor activity widely used to describe antineoplasic properties of new drugs. […] The ability of YTX as a cytotoxic drug for hepatic carcinoma tumor cells is quantified in the present use. Cell growth inhibition can be determined according to different protocols described in the literature. One of these protocols is set forth below in which the response is quantified in the HEP-G2 cell line by means of crystal violet staining and subsequent acetylation.
a.—HEP-G2 cells are seeded on a microtitration plate with a density of 10000 cells per well. They are incubated for 24 hours with growth medium at 37° C. and 5% CO2.
b.—Different concentrations of YTX are added and it is incubated for 48 hours at 37° C. and 5% CO2.
c.—10 μL of 11% glutaraldehyde are added to fix the cells and it is incubated for 15 minutes. It is washed 3-4 times with distilled water.
d.—A 0.1% solution of crystal violet is added and the plate is shaken for 15 minutes.
e.—The dye is removed by washing with distilled water and it is subsequently dried.
f.—10% acetic acid is added and shaking is maintained for 15 minutes.
g.—Absorbance is read in a spectrophotometer at 595 nanometers.
h.—It was found with this protocol that 10 μM of YTX induce cell growth inhibition of about 82+/−1%.

[2] = system: rat mastocytes; assay: Inhibition of histamine release induced by immunological stimulus (ovalbumin) in rat mastocytes; assay type: cell-based
Excerpt: Immunological activation of mastocytes and basophils requires a temporary increase of cAMP. This increase is indispensable for cell response activation (Botana and MacGlashan, 1994). PDE activation cancels this initial cAMP peak, and therefore prevents cell activation. In the presence of YTX, i.e. with activated PDEs, cell response will be inhibited. The inhibiting effect can be used in antiallergic or antiasthmatic therapeutic strategies, these being two pathologies in which mastocytes play a predominant role (Metcalfe, Baram, D. et al., 1997). The present use describes the quantification of the inhibition that YTX produces on cell activation induced by immunological stimulus in mastocytes in rats. Cell response inhibition can be determined according to different protocols described in the literature. One in which the response is quantified according to the histamine released by mastocytes in rats into the extracellular medium is set forth below (Alfonso, Cabado, A. G. et al., 2000; Estévez, Vieytes, et al., 1994).
a.—The rats are sensitized 15 days before conducting the experiment. […]
g.—The histamine is finally quantified, converting it into a fluorescent molecule by reaction in a base medium with o-phthalic dialdehyde. The reaction is stopped with hydrochloric acid and the fluorescence is read at 360 nm excitation and 460 nm emission.

[3] = system: cellular phosphodiesterases (PDEs); assay: Activation of cellular phosphodiesterases (destruction of cAMP); assay type: biochemical
Excerpt: A usual way of detecting cellular PDE activity is to observe their ability to destroy cAMP. There is a fluorescent derivative of cAMP, anthraniloyl-cAMP (excitation wavelength: 350 nm, emission wavelength: 445 nm), the fluorescence of which decreases as it degrades. The decrease of fluorescence over time can be expressed as the destruction rate of cAMP. In the presence of PDEs, the destruction rate increases, and if these enzymes are activated, the degradation rate will be even greater. In the present invention the degradation rate of the fluorescent indicator anthraniloyl-cAMP in the presence of PDEs is determined and its variation when samples with YTX are added is studied. Fluorescence is read with a fluorimeter that is prepared for reading microtitration plates. The destruction rate is determined in the presence of several known concentrations of YTX. […]
The method is carried out in a microtitration plate in a temperature range between 22 and 37° C. and the fluorescence is measured at an excitation wavelength of 360 nanometers and an emission wavelength of 460 nanometers.
a.—Test buffer (10 mM Tris HCl+1 mM CaCl2 pH 7.4) is added in all the wells for a final incubation volume of 100 μL, and the corresponding amount, depending on the type of well, of anthraniloyl-cAMP. A first reading is performed for 2 minutes. […]

[4] = system: cellular phosphatases; conditions: in contrast to okadaic acid (Draisci, Lucentini et al., 2000); cited from earlier work

C=CCC(=C)/C=C/[C@@](C)(O)[C@H]1O[C@@H]2C[C@@H]3O[C@@H]4C[C@@H]5O[C@@H]6C[C@@H]7O[C@@H]8C[C@@H]9O[C@@H]%10C[C@@H]%11O[C@](C)(CCOS(=O)(=O)O)[C@@H](OS(=O)(=O)O)C[C@H]%11O[C@H]%10C[C@H]9O[C@H]8CC[C@@]7(C)O[C@@]6(C)CC[C@H](C)[C@H]5O[C@H]4C[C@@]3(C)O[C@H]2CC1=C [YTX, yessotoxin]
inhibition at 10 µM [1]: ~82% | effect on histamine release activated by immunological stimulus [2]: histamine release inhibitor | effect on PDE activity [3]: PDE activator | effect on cellular phosphatases [4]: does not inhibit
